Measurements from patent US20130345254A1, “CYCLOHEXANE SUBSTITUTED AMINO CYCLOPENTANE DERIVATIVES AS USEFUL CCR2 ANTAGONISTS” (priority 2011, published 2013).

Target: T1, human CCR2 (Homo sapiens, UniProt P41597)
T1 construct: expressed in transfected cells; host or cells: Ba/F3 cells (membrane preparation)
Test: CCR2 membrane binding assay (SPA, 125I-rhMCP-1 competition)
Settings: membranes from Ba/F3 cells transfected with human CCR2; 0.03 nM 125I-rhMCP-1; 4 h room temperature
Experimental: The radio-ligand binding assay was done using scintillation proximity assay (SPA) technology. Briefly, membranes (1 μg per assay point) from Ba/F3 cells transfected with human CCR2, and wheat germ agglutinin-coated SPA beads (80 μg per point; Amersham, Arlington Heights, Ill.), were pre-incubated for 30 min at room temperature in CCR2 buffer (50 mM HEPES (pH=7.4), 10 mM MgCl2, 10 mM NaCl, 1 mM CaCL2, 0.1% BSA, 10 μg/ml Saponin). At this point pre-bound SPA bead, membrane complex was incubated at room temperature for 4 h with varying concentrations of punitive CCR2 antagonists (in 1% DMSO, final) and 0.03 nM ^125I-rhMCP-1 in CCR2 Buffer (S.A. 2200 Ci/mmol, PerkinElmer Life and Analytical Science, Boston, Mass.; NEX332). Binding competition was measured using a 1450 Microbeta Trilux counter (Wallac, Gaithersburg, Md.). Binding constants (IC50 and slope) were calculated using GraphPad Prism software (GraphPad Software, Inc., La Jolla Calif.).

T1 sequence (P41597 whole entry): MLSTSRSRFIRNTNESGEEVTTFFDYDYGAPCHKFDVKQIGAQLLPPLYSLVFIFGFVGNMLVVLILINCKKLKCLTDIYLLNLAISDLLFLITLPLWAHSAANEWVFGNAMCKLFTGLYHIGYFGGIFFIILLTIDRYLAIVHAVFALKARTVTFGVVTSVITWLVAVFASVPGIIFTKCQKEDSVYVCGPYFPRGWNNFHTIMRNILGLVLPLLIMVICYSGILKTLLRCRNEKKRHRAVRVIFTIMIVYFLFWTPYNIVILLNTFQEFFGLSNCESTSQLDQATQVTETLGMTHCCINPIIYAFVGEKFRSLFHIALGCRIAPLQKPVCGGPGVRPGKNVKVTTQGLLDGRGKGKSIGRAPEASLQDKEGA

Row | IC50 [nM] | Compound
1 | 9 | CC=C1CCC(N[C@@H]2CC[C@@](C(=O)N3CCc4ncc(C(F)(F)F)cc4C3)(C(C)C)C2)CC1 (some centres unmarked) [Compound 2]
2 | 2100 | CC=C1CCC(N[C@@H]2CC[C@H](C(=O)NCc3cc(C(F)(F)F)cc(C(F)(F)F)c3)C2)CC1 (some centres unmarked) [Compound 1]
